Measured values as given in patent US4258029A, “Synthetic adjuvants for stimulation of antigenic responses” (Connaught Laboratories Limited, priority 1979, dated 1981).

Key:
tetanus toxoid [1] = assay: Tetanus toxoid remaining in supernatant after stirring with octadecyl tyrosine; assay type: physicochemical; details: pH 7.0, 24 hours room temperature
Protocol: Tetanus toxoid solution (10 ml, 30 Lf/ml, pH 7.0) was placed in a container with a magnetic stirring bar. An ether solution of octadecyl tyrosine (0.3 ml, 30 mg/ml) was added, the mixture stirred rapidly and the ether removed under vacuum. The resulting cloudy solution was stirred at room temperature for 24 hours.
To tetanus toxoid solution (10 ml, 30 Lf/ml, pH 7.0) was added dry octadecyl tyrosine base (10 mg) and the mixture stirred for 24 hours at room temperature.

tetanus toxoid [2] = system: tetanus toxoid; design: species or system guinea pigs; details: guinea pig, in vivo, sc
[3] = system: guinea pigs which had been sensitized to tetanus toxoid; details: guinea pig, in vivo

| Compound | tetanus toxoid in supernatant, Procedure B (tetanus toxoid [1]; dry base 10 mg added to 10 ml toxoid 30 Lf/ml) | tetanus toxoid in supernatant, Procedure A (tetanus toxoid [1]; ether solution 0.3 ml, 30 mg/ml added to 10 ml toxoid 30 Lf/ml, after centrifuging) | Antibody Units/ml, 4 Weeks (tetanus toxoid [2]) | Antibody Units/ml, 61/2 weeks (tetanus toxoid [2]) | Diameter of skin reaction [3] |
| --- | --- | --- | --- | --- | --- |
| CCCCCCCCCCCCCCCCCCOC(=O)[C@@H](N)Cc1ccc(O)cc1 [octadecyl tyrosine] | no detectable tetanus toxoid | no detectable tetanus toxoid |  |  |  |
| Tetanus Toxoid |  |  | 1.39 ± 0.2 Units/ml | 7.2 ± 1.2 Units/ml | 17 ± 1.47 mm |
